According to patent US10717716B2, “1,3,4-oxadiazole derivative compounds as histone deacetylase 6 inhibitor, and the pharmaceutical composition comprising the same” (Chong Kun Dang Pharmaceutical Corp., priority 2015, dated 2020):

Target: T1, human recombinant HDAC6 (Homo sapiens, UniProt Q9UBN7)
T1 construct: purchased Calbiochem 382180
T1 sequence (Q9UBN7 1-1215): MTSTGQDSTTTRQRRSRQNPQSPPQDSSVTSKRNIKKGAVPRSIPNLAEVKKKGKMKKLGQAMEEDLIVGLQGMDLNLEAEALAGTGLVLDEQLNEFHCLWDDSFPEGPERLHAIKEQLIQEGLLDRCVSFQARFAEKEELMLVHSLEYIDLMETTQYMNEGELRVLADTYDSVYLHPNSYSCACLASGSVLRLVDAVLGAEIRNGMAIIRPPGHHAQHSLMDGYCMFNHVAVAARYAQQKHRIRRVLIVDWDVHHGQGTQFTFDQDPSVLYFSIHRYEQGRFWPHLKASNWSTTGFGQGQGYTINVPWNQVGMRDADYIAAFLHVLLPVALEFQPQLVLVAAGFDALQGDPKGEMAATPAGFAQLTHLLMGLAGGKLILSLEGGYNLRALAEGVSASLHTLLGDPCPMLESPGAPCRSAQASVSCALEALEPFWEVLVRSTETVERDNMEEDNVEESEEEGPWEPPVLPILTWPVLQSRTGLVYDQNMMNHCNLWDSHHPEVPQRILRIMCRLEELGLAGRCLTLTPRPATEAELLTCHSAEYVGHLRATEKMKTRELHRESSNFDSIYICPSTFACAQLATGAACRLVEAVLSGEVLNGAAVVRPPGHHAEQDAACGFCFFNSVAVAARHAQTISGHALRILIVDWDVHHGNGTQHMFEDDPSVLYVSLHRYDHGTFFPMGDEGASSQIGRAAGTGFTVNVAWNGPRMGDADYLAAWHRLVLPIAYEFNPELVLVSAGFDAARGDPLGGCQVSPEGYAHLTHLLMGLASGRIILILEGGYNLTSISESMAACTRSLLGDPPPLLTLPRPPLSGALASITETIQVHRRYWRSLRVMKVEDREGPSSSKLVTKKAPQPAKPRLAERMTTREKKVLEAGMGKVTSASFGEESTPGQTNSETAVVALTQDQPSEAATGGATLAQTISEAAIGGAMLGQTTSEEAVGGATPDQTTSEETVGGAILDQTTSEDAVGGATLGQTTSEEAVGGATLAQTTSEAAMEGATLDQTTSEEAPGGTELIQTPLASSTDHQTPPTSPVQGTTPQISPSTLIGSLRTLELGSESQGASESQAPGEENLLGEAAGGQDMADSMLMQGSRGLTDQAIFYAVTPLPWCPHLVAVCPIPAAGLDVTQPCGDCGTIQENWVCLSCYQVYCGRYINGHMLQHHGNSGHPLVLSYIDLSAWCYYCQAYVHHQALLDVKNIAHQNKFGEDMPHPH
Assay: HDAC6 enzyme activity inhibition assay (HDAC Fluorimetric Drug Discovery Kit)
Assay type: biochemical
Conditions: for HDAC6 selectivity (fold): HDAC6 over HDAC1; for IC50: human recombinant HDAC6, same protocol as HDAC1, read-out: HDAC6
Description: In order to examine the HDAC6 selectivity of the compounds of formula I of the present invention by HDAC1 and HDAC6 enzymatic activity inhibition assays, an experiment was performed using a conventional substance as a control.
HDAC enzyme activity was measured using a HDAC Fluorimetric Drug Discovery Kit (BML-AK511, 516, Enzo Life Science). For the HDAC1 enzyme activity test, human recombinant HDAC1 (BML-SE456) was used as an enzyme source, and Fluor de Lys®-“SIRT1 (BNL-KI177) was used as a substrate. A 5-fold dilution of the compound was seeded into a 96-well plate, and then 0.3 μg of the enzyme and 10 μM of the substrate were added to each well of the plate and allowed to react at 30° C. for 60 minutes. Then, Fluor de Lys®-Developer II (BML-KI176) was added thereto and allowed to react for 30 minutes, after which the fluorescence value (Ex 360, Em 460) was measured using a multi-plate reader (Flexstation 3, Molecular Device). The HDAC6 enzyme was tested using human recombinant HDAC6 (382180) (Calbiochem) according to the same protocol as the HDAC1 enzyme activity test method. Based on the resulting values, each IC5, value was calculated using GraphPad Prism4.0 program.

| HDAC6 selectivity (fold) | IC50 [nM] | SMILES |
| --- | --- | --- |
| 151 | 66 | CN(C)[C@@H]1CCN(Cc2ccc(N(Cc3ccc(-c4nnc(C(F)F)o4)cc3F)C(=O)N3CCS(=O)(=O)CC3)cc2)C1 [Compound 21917, (R)—N-(4-(5-(difluoromethyl)-1,3,4-oxadiazol-2-yl)-2-fluorobenzyl)-N-(4-((3-(dimethylamino)pyrrolidin-1-yl)methyl)phenyl)thiomorpholine-4-carboxamide 1,1-dioxide] |
| 70 | 143 | CN1CCN(C(=O)N(Cc2ccc(-c3nnc(C(F)F)o3)cc2F)c2cccc(-c3ccccc3)c2)CC1 [Compound 21533, N-([1,1′-biphenyl]-3-yl)-N-(4-(5-(difluoromethyl)-1,3,4-oxadiazol-2-yl)-2-fluorobenzyl)-4-methylpiperazine-1-carboxamide] |
| 153 | 65 | O=C(N1CCN(C2COC2)CC1)N(Cc1ccc(-c2nnc(C(F)F)o2)cc1F)c1cccc(F)c1 [Compound 21937, N-(4-(5-(Difluoromethyl)-1,3,4-oxadiazol-2-yl)-2-fluorobenzyl)-N-(3-fluorophenyl)-4-(oxetan-3-yl)piperazine-1-carboxamide] |
| 226 | 44 | CCN1CCN(C(=O)N(Cc2ccc(-c3nnc(C(F)F)o3)cc2F)c2ccc(C)c(Cl)c2)CC1 [Compound 21657, N-(3-chloro-4-methylphenyl)-N-(4-(5-(difluoromethyl)-1,3,4-oxadiazol-2-yl)-2-fluorobenzyl)-4-ethylpiperazine-1-carboxamide] |
| 250 | 40 | CN1CCN(Cc2ccc(N(Cc3ccc(-c4nnc(C(F)F)o4)cc3F)C(=O)N3CCS(=O)(=O)CC3)cc2)CC1 [Compound 21516, N-(4-(5-(difluoromethyl)-1,3,4-oxadiazol-2-yl)-2-fluorobenzyl)-N-(4-((4-methylpiperazin-1-yl)methyl)phenyl)thiomorpholine-4-carboxamide 1,1-dioxide] |
| 94 | 107 | CC(C)n1ncc2ccc(N(Cc3ccc(-c4nnc(C(F)F)o4)cc3F)C(=O)N3CCS(=O)(=O)CC3)cc21 [Compound 21812, N-(4-(5-(Difluoromethyl)-1,3,4-oxadiazol-2-yl)-2-fluorobenzyl)-N-(1-isopropyl-1H-indazol-6-yl)thiomorpholine-4-carboxamide 1,1-dioxide] |
| 103 | 98 | CCN1CCN(C(=O)N(Cc2ccc(-c3nnc(C(F)F)o3)cc2)c2cccc(OC)c2)CC1 [Compound 21889, N-(4-(5-(Difluoromethyl)-1,3,4-oxadiazol-2-yl)benzyl)-4-ethyl-N-(3-methoxyphenyl)piperazine-1-carboxamide] |
| 62 | 161 | O=C(N1CCN(C2COC2)CC1)N(Cc1ccc(-c2nnc(C(F)F)o2)cc1)c1ccc(F)cc1 [Compound 21939, N-(4-(5-(Difluoromethyl)-1,3,4-oxadiazol-2-yl)benzyl)-N-(4-fluorophenyl)-4-(oxetan-3-yl)piperazine-1-carboxamide] |
| 47 | 213 | O=C(NCCN1CCC[C@@H]1C(F)(F)F)N(Cc1ccc(-c2nnc(C(F)F)o2)cc1F)c1ccccc1 [Compound 21987, (R)-1-(4-(5-(difluoromethyl)-1,3,4-oxadiazol-2-yl)-2-fluorobenzyl)-1-phenyl-3-(2-(2-(trifluoromethyl)pyrrolidin-1-yl)ethyl)urea] |
| 85 | 117 | CC(=O)N1CCCN(CCNC(=O)N(Cc2ccc(-c3nnc(C(F)F)o3)cc2F)c2ccccc2)CC1 [Compound 21999, 3-(2-(4-Acetyl-1,4-diazepan-1-yl)ethyl)-1-(4-(5-(difluoromethyl)-1,3,4-oxadiazol-2-yl)-2-fluorobenzyl)-1-phenylurea] |
| 115 | 87 | CN1CCN(CCNC(=O)N(Cc2ccc(-c3nnc(C(F)F)o3)cc2F)c2ccccc2)CC1 [Compound 21958, 1-(4-(5-(Difluoromethyl)-1,3,4-oxadiazol-2-yl)-2-fluorobenzyl)-3-(2-(4-methylpiperazin-1-yl)ethyl)-1-phenylurea] |

Further lines, the compound ahead of its results:

| SMILES | HDAC6 selectivity (fold) | IC50 [nM] |
| --- | --- | --- |
| O=C(N1CCS(=O)(=O)CC1)N(Cc1ccc(-c2nnc(C(F)F)o2)cc1)c1cccc(C(F)(F)F)n1 [Compound 21457, N-(4-(5-(difluoromethyl)-1,3,4-oxadiazol-2-yl)benzyl)-N-(6-(trifluoromethyl)pyridin-2-yl)thiomorpholine-4-carboxamide 1,1-dioxide] | 53 | 190 |
| C[C@@H]1CN(C(=O)N(Cc2ccc(-c3nnc(C(F)(F)F)o3)cc2)c2ccccc2)C[C@H](C)N1 [Compound 21385, (3S,5R)-3,5-Dimethyl-N-phenyl-N-(4-(5-(trifluoromethyl)-1,3,4-oxadiazol-2-yl)benzyl)piperazine-1-carboxamide] | 175 | 57 |
| O=C(N1CCS(=O)(=O)CC1)N(Cc1ccc(-c2nnc(C(F)(F)F)o2)cc1)c1ccc(Br)cc1 [Compound 21413, N-(4-bromophenyl)-N-(4-(5-(trifluoromethyl)-1,3,4-oxadiazol-2-yl)benzyl)thiomorpholine-4-carboxamide 1,1-dioxide] | 41 | 246 |
| Cc1ccccc1N(Cc1ccc(-c2nnc(C(F)F)o2)cc1)C(=O)N1CCS(=O)(=O)CC1 [Compound 21452, N-(4-(5-(difluoromethyl)-1,3,4-oxadiazol-2-yl)benzyl)-N-(o-tolyl)thiomorpholine-4-carboxamide 1,1-dioxide] | 93 | 108 |
| O=C(N1CC=C(c2ccccc2)CC1)N(Cc1ccc(-c2nnc(C(F)(F)F)o2)cc1)c1ccccc1 [Compound 21359, N,4-diphenyl-N-(4-(5-(trifluoromethyl)-1,3,4-oxadiazol-2-yl)benzyl)-3,6-dihydropyridine-1(2H)-carboxamide] | 4 | 2280 |
| O=C(N1CCC1)N(Cc1ccc(-c2nnc(C(F)(F)F)o2)cc1)c1ccccc1 [Compound 21349, N-phenyl-N-(4-(5-(trifluoromethyl)-1,3,4-oxadiazol-2-yl)benzyl)azetidine-1-carboxamide] | 23 | 430 |
| O=C(N1CCS(=O)(=O)CC1)N(Cc1ccc(-c2nnc(C(F)(F)F)o2)cc1)c1ccc(C(F)(F)F)cc1 [Compound 21412, N-(4-(5-(trifluoromethyl)-1,3,4-oxadiazol-2-yl)benzyl)-N-(4-(trifluoromethyl)phenyl)thiomorpholine-4-carboxamide 1,1-dioxide] | 21 | 470 |
| O=C(N1CCOCC1)N(Cc1ccc(-c2nnc(C(F)(F)F)o2)cc1)c1ccc(F)cc1F [Compound 21414, N-(2,4-difluorophenyl)-N-(4-(5-(trifluoromethyl)-1,3,4-oxadiazol-2-yl)benzyl)morpholine-4-carboxamide] | 79 | 126 |
| COc1ccc(N(Cc2ccc(-c3nnc(C(F)F)o3)cc2)C(=O)N2CCS(=O)(=O)CC2)cc1 [Compound 21453, N-(4-(5-(difluoromethyl)-1,3,4-oxadiazol-2-yl)benzyl)-N-(4-methoxyphenyl)thiomorpholine-4-carboxamide 1,1-dioxide] | 85 | 117 |
